Experimental data as given in PubChem BioAssay AID2060332 (Molecular Pharmacology Branch, DTP, NCI, 2025).
Values joined by “and” are separate entries in the source; they are usually repeats but may differ in a detail not shown here. Equal values may be shown once.

Tested on: LG0567-F671-PDC multi-cell spheroid viability
Experiment: Anticancer human tumor LG0567-F671-PDC patient-derived lung adenocarcinoma cell line growth inhibition [IpAb]
Conditions: for viability, T/C: stronger effect = lower value; active = viability on the fitted dose curve at most 10% of control; inactive = the rest
Description: Combinatorial screen of targeted agents with ipatasertib and abemaciclib in multi-cell type tumor spheroids
A high-throughput screen of multi-cell type tumor spheroids was designed to identify active combinations of targeted small molecules and ipatasertib or abemaciclib. Complex spheroids include a stromal component modeled by human endothelial cells (HUVEC) and fibroblasts modeled by human mesenchymal stem cells (MSCs). The concentration ranges selected for each drug and investigational agent were based upon clinically achievable concentrations if the clinical Cmax of the agent was known.
Compounds. The drugs and investigational agents: ipatasertib (NSC767898), abemaciclib(NSC768073), selumetinib (NSC741078), trametinib (758246), adavosertib (NSC754352), everolimus (NSC733504), sapanisertib (NSC764658), vemurafenib (NSC761431), venetoclax (NSC766270), copanlisib (NSC809693), apelisib (NSC765974), palbociblib (NSC758247), vemurafenib (NSC761431), dabrafenib (NSC764134), ravoxertinib (NSC781343), BMS-387032 (NSC767048), sotorasib (NSC818433), talazoparib (NSC767125) and afursertib (NSC778305), were obtained from the National Cancer Institute (NCI) Developmental Therapeutics Program Chemical Repository. The FDA-approved anticancer drug set is available from the NCI Developmental Therapeutics Program. […] The stock solutions were prepared in dimethyl sulfoxide (DMSO, Sigma-Aldrich, St. Louis, MO, cat. D2650) at 800-fold the tested concentration and stored at -70 degrees C prior to their use. All drugs and investigational agents were tested over a range starting from a high concentration at or near the clinical Cmax and decreasing in half-log increments. If the clinical Cmax for an agent had not been determined, the highest concentration tested was 10 microM.
NCI60 Cell Culture. NCI60 cell lines were obtained from the NCI Developmental Therapeutics Program Tumor Repository. For each lot of cells, the Repository performed Applied Biosystems AmpFLSTR Identifiler testing with PCR amplification to confirm consistency with the published Identifier STR profile for each cell line. Cells were kept in continuous culture for no more than 20 passages. The optimal seeding densities for each of the cell lines at each time point assessed were determined prior to performing the concentration response studies. Briefly, the NCI60 human tumor lines were grown as monolayers in RPMI 1640 medium supplemented with 10% FBS and 2 mmol/L L-glutamine.
An additional 9 lines were from the NCI60 cell line panel including MDA-MB-231 breast carcinoma, MDA-MB-468 breast carcinoma, MCF7 breast carcinoma, Hs578T breast carcinoma, MALME-3M melanoma, SK-MEL-2 melanoma, SK-OV-3 ovarian carcinoma, DU-145 prostate carcinoma, PC-3 prostate carcinoma, all cell lines along with major genetic alterations are listed on Table 2. Pooled donor human umbilical vein endothelial cells (HUVEC, Lonza, cat. CC-2519) and human mesenchymal stem cells (hMSC, Lonza, cat. PT-2501) were purchased from Lonza (Walkersville, MD).
PDMR cell lines were grown in complete medium (DC medium): Dulbecco's modified Eagle's medium (DMEM)/F12 supplemented with 5% fetal bovine serum (FBS), 2 mM L-glutamine, 100 U/mL penicillin and 100 µg/ml streptomycin, 0.4 µg/ml hydrocortisone, 10 ng/ml epidermal growth factor (EGF) recombinant human protein, 24 µg/mL adenine, and 0.1 mg/mL primocin. During culture from frozen stock vials, PDMR cells were cultured in the same medium containing 10 µM Y-27632 (see Table 3). The PDCs were cultured in complete DMEM/F12 media without 10 microM Y-27632 dihydrochloride for at least two passages prior to the screen. The pooled donor HUVEC and hMSC were cultured in endothelial cell growth medium 2 (PromoCell, Heidelberg, Germany, cat. C-22011) and mesenchymal stem cell growth medium 2 (PromoCell, cat. C-28009), respectively. For all experiments, HUVEC and hMSC were used at passages </=5.
[…]

[1] = curve of first compound, second compound 0.1 µM
[2] = curve of first compound, second compound 0.316 µM
[3] = curve of first compound, second compound 1 µM
[4] = curve of first compound, second compound 3.16 µM
[5] = curve of first compound, second compound 10 µM
[6] = second compound 0.1 µM, first compound 0.0316 µM
[7] = second compound 0.1 µM, first compound 0.1 µM
[8] = second compound 0.1 µM, first compound 0.316 µM
[9] = second compound 0.1 µM, first compound 1 µM
[10] = second compound 0.1 µM, first compound 3.16 µM
[11] = second compound 0.1 µM, first compound 10 µM
[12] = second compound 0.316 µM, first compound 0.0316 µM
[13] = second compound 0.316 µM, first compound 0.1 µM
[14] = second compound 0.316 µM, first compound 0.316 µM
[15] = second compound 0.316 µM, first compound 1 µM
[16] = second compound 0.316 µM, first compound 3.16 µM
[17] = second compound 0.316 µM, first compound 10 µM
[18] = second compound 1 µM, first compound 0.0316 µM
[19] = second compound 1 µM, first compound 0.1 µM
[20] = second compound 1 µM, first compound 0.316 µM
[21] = second compound 1 µM, first compound 1 µM
[22] = second compound 1 µM, first compound 3.16 µM
[23] = second compound 1 µM, first compound 10 µM
[24] = second compound 3.16 µM, first compound 0.0316 µM
[25] = second compound 3.16 µM, first compound 0.1 µM
[26] = second compound 3.16 µM, first compound 0.316 µM
[27] = second compound 3.16 µM, first compound 1 µM
[28] = second compound 3.16 µM, first compound 3.16 µM
[29] = second compound 3.16 µM, first compound 10 µM
[30] = second compound 10 µM, first compound 0.0316 µM
[31] = second compound 10 µM, first compound 0.1 µM
[32] = second compound 10 µM, first compound 0.316 µM
[33] = second compound 10 µM, first compound 1 µM
[34] = second compound 10 µM, first compound 3.16 µM
[35] = second compound 10 µM, first compound 10 µM
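Also: viability read after 7 days of drug exposure.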
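For viability, T/C in this document: 100% = DMSO vehicle control luminescence.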

CCCS(=O)(=O)Nc1ccc(F)c(C(=O)c2c[nH]c3ncc(-c4ccc(Cl)cc4)cc23)c1F + CC(C)NCC(C(=O)N1CCN(c2ncnc3c2C(C)CC3O)CC1)c1ccc(Cl)cc1
> 10000 nM: IC50 [1] | IC50 [2] | IC50 [3] | IC50 [4] | IC50 [5]
inactive: viability, T/C [6] 100% | viability, T/C [7] 119% | viability, T/C [8] 111% | viability, T/C [9] 137% | viability, T/C [10] 162% | viability, T/C [11] 147% | viability, T/C [12] 77.1% | viability, T/C [13] 90.5% | viability, T/C [14] 94.5% | viability, T/C [15] 114% | viability, T/C [16] 127% | viability, T/C [17] 140% | viability, T/C [18] 77.3% | viability, T/C [19] 78.6% | viability, T/C [20] 88.3% | viability, T/C [21] 115% | viability, T/C [22] 124% | viability, T/C [23] 82% | viability, T/C [24] 88.3% | viability, T/C [25] 82.5% | viability, T/C [26] 93.8% | viability, T/C [27] 102% | viability, T/C [28] 82.9% | viability, T/C [29] 77.5% | viability, T/C [30] 88.3% | viability, T/C [31] 64.1% | viability, T/C [32] 77% | viability, T/C [33] 84.9% | viability, T/C [34] 70.3% | viability, T/C [35] 57.7%

CCCS(=O)(=O)Nc1ccc(F)c(C(=O)c2c[nH]c3ncc(-c4ccc(Cl)cc4)cc23)c1F
> 10000 nM: IC50 (curve of compound)
inactive: viability, T/C (compound 0.0316 µM) 101% and 97.6% | viability, T/C (compound 0.1 µM) 117% and 154% | viability, T/C (compound 0.316 µM) 143% and 135% | viability, T/C (compound 1 µM) 138% | viability, T/C (compound 3.16 µM) 197% and 189% | viability, T/C (compound 10 µM) 215% and 179%

C=CC(=O)N1CCN(c2nc(=O)n(-c3c(C)ccnc3C(C)C)c3nc(-c4c(O)cccc4F)c(F)cc23)C(C)C1 (stereo unspecified)
< 31.6 nM: IC50 (curve of compound)
inactive: viability, T/C (compound 0.0316 µM) 26.6% and 19.1% | viability, T/C (compound 0.1 µM) 18.9% and 20.1% | viability, T/C (compound 0.316 µM) 19.7% and 18.1% | viability, T/C (compound 1 µM) 18.6% and 17.6% | viability, T/C (compound 3.16 µM) 16% and 20.2% | viability, T/C (compound 10 µM) 20.3% and 18.5%

C=CCn1c(=O)c2cnc(Nc3ccc(N4CCN(C)CC4)cc3)nc2n1-c1cccc(C(C)(C)O)n1 + CCN1CCN(Cc2ccc(Nc3ncc(F)c(-c4cc(F)c5nc(C)n(C(C)C)c5c4)n3)nc2)CC1
518 nM: IC50 [1]
310 nM: IC50 (curve of first compound, second compound 0.0316 µM)
240 nM: IC50 [2]
800 nM: IC50 (curve of first compound, second compound 0.01 µM)
359 nM: IC50 [3]
inactive: viability, T/C (second compound 0.01 µM, first compound 0.0316 µM) 95% | viability, T/C (second compound 0.01 µM, first compound 0.1 µM) 68.1% | viability, T/C (second compound 0.01 µM, first compound 0.316 µM) 66.8% | viability, T/C (second compound 0.01 µM, first compound 1 µM) 48.4% | viability, T/C (second compound 0.01 µM, first compound 3.16 µM) 31.9% | viability, T/C (second compound 0.01 µM, first compound 10 µM) 32% | viability, T/C (second compound 0.0316 µM, first compound 0.0316 µM) 94.2% | viability, T/C (second compound 0.0316 µM, first compound 0.1 µM) 52.9% | viability, T/C (second compound 0.0316 µM, first compound 0.316 µM) 54.9% | viability, T/C (second compound 0.0316 µM, first compound 1 µM) 48.5% | viability, T/C (second compound 0.0316 µM, first compound 3.16 µM) 36.4% | viability, T/C (second compound 0.0316 µM, first compound 10 µM) 23.8% | viability, T/C [6] 64.2% | viability, T/C [7] 50.4% | viability, T/C [8] 51.2% | viability, T/C [9] 51.1% | viability, T/C [10] 35% | viability, T/C [11] 23.8% | viability, T/C [12] 57.8% | viability, T/C [13] 52.9% | viability, T/C [14] 46.9% | viability, T/C [15] 45.6% | viability, T/C [16] 35.8% | viability, T/C [17] 27.9% | viability, T/C [18] 63.8% | viability, T/C [19] 59.8% | viability, T/C [20] 49.2% | viability, T/C [21] 43.9% | viability, T/C [22] 33.9% | viability, T/C [23] 29.4%

Cn1nccc1Nc1nccc(-c2ccn(C(CO)c3ccc(Cl)c(F)c3)c(=O)c2)n1 (stereo unspecified) + CC(C)NCC(C(=O)N1CCN(c2ncnc3c2C(C)CC3O)CC1)c1ccc(Cl)cc1
192 nM: IC50 [5]
152 nM: IC50 [3]
160 nM: IC50 [4]
79.9 nM: IC50 [2]
128 nM: IC50 [1]
inactive: viability, T/C [6] 60.9% | viability, T/C [7] 51.7% | viability, T/C [8] 44.4% | viability, T/C [9] 34.2% | viability, T/C [10] 29.1% | viability, T/C [11] 23.9% | viability, T/C [12] 62.1% | viability, T/C [13] 45.6% | viability, T/C [14] 36.7% | viability, T/C [15] 32.7% | viability, T/C [16] 26% | viability, T/C [17] 21.3% | viability, T/C [18] 62.4% | viability, T/C [19] 52.9% | viability, T/C [20] 43.8% | viability, T/C [21] 25.9% | viability, T/C [22] 20.2% | viability, T/C [23] 15.9% | viability, T/C [24] 67.2% | viability, T/C [25] 58% | viability, T/C [26] 38.6% | viability, T/C [27] 31.7% | viability, T/C [28] 19.3% | viability, T/C [29] 9.79% | viability, T/C [30] 60.1% | viability, T/C [31] 57.4% | viability, T/C [32] 44.8% | viability, T/C [33] 27.2% | viability, T/C [34] 16.7% | viability, T/C [35] 9.92%

CC1(C)CCC(CN2CCN(c3ccc(C(=O)NS(=O)(=O)c4ccc(NCC5CCOCC5)c([N+](=O)[O-])c4)c(Oc4cnc5[nH]ccc5c4)c3)CC2)=C(c2ccc(Cl)cc2)C1
inactive: viability, T/C (compound 0.0316 µM) 96.3% and 101% | viability, T/C (compound 0.1 µM) 87.4% and 110% | viability, T/C (compound 0.316 µM) 86.8% and 105% | viability, T/C (compound 1 µM) 112% and 113% | viability, T/C (compound 3.16 µM) 145% and 143% | viability, T/C (compound 10 µM) 25.2% and 23%
7020 nM and 7120 nM: IC50 (curve of compound)
